{
  "source": "patent US11167005B2",
  "about": "“Peptides for treating Sjogren's syndrome” (YEDA RESEARCH AND DEVELOPMENT CO. LTD., priority 2017, dated 2021)",
  "key": {"IDO [1]": {"tested_on": "IDO", "test": "IDO gene expression in PBMCs of pSS patients, real-time RT-PCR", "format": "cell-based, human", "conditions": "for IDO gene expression on addition of recombinant cytokine to cultures of PBMCs with hCDR1: compared with hCDR1 alone (FIG. 3C)", "procedure": "Following 48 hours of incubation, cells were collected and mRNA was prepared from all samples. The expression of various genes was determined using real-time RT-PCR.\nThereafter, RNA was extracted from the cells and gene expression was determined by real-time RT-PCR.\nSince both IL-1β and IFN-α were reported to increase the production and expression of IDO, the effects of the addition of recombinant IL-1β or IFN-α to cultures of PBMCs with hCDR1 on IDO gene expression were further tested.\n(§1) The effect of IDO inhibition on the expression of the suppressive master gene FOXP3, that is expressed on functional T regulatory cells, was tested."}, "FOXP3": {"tested_on": "FOXP3", "test": "FOXP3 gene expression in PBMCs of SS patients, real-time RT-PCR", "format": "cell-based, human", "procedure": "(§2) 5×10^6/mL peripheral blood mononuclear cells (PBMCs) obtained from blood samples of rheumatoid arthritis (RA) patients, anti-phospholipid syndrome patients (APS) and SS patients were incubated in-vitro in: medium alone, medium containing 25 μg/mL hCDR1 (SEQ ID NO: 1), or medium containing 25 μg/mL of control scrambled peptide (SEQ ID NO: 2). Following 48 hours of incubation, cells were collected and mRNA was prepared from all samples. The expression of various genes was determined using real-time RT-PCR. The control peptide has the same amino acid residues as SEQ ID NO:1 in a scrambled order.\nas §1"}, "DNA": {"tested_on": "DNA", "conditions": "background statement; cited from earlier work"}, "pathogenic cytokines [2]": {"tested_on": "pathogenic cytokines", "test": "Gene expression of pathogenic cytokines in PBMCs of rheumatoid arthritis patients", "format": "cell-based, human", "conditions": "25 μg/mL, 48 hours, vs medium alone or control peptide (FIG. 1A)", "procedure": "as §2"}, "[3]": {"conditions": "Phase Ia and Ib clinical studies, humans; cited from earlier work"}, "pathogenic cytokines [4]": {"tested_on": "pathogenic cytokines", "test": "Gene expression of pathogenic cytokines in PBMCs of anti-phospholipid syndrome patients", "format": "cell-based, human", "conditions": "25 μg/mL, 48 hours, vs medium alone or control peptide (FIG. 1B)", "procedure": "as §2"}, "SLE in murine models": {"tested_on": "SLE in murine models", "conditions": "cited from earlier work"}, "TGF-β": {"tested_on": "TGF-β", "test": "TGF-β gene expression in PBMCs of SS patients, real-time RT-PCR", "format": "cell-based, human", "conditions": "48 hours; for expression of the gene for TGF-β: PBMCs isolated from SS patients, p=0.012 vs medium alone, p=0.028 vs control peptide", "procedure": "as §2\nPBMCs of patients with pSS were isolated and incubated in vitro for 48 hours in the presence of medium, hCDR1 (SEQ ID NO: 1) or a control scrambled peptide (SEQ ID NO: 2). Thereafter, RNA was extracted from the cells and gene expression was determined by real-time RT-PCR."}, "TNF-α": {"tested_on": "TNF-α", "test": "TNF-α gene expression in PBMCs of SS patients, real-time RT-PCR", "format": "cell-based, human", "conditions": "25 μg/mL, 48 hours", "procedure": "as §2"}, "anti-DNA antibodies": {"tested_on": "anti-DNA antibodies", "conditions": "background statement; cited from earlier work"}, "MX1": {"tested_on": "MX1", "test": "MX1 gene expression in PBMCs of SS patients, real-time RT-PCR", "format": "cell-based, human", "conditions": "25 μg/mL, 48 hours", "procedure": "as §2"}, "SLE patients": {"tested_on": "SLE patients", "conditions": "Phase II clinical trial in SLE patients (Urowitz et al. 2015); cited from earlier work"}, "IDO [5]": {"tested_on": "IDO", "test": "IDO gene expression in PBMCs of subjects with RA", "format": "cell-based, human", "conditions": "48 hours (FIG. 3B)"}, "IL-1β": {"tested_on": "IL-1β", "test": "IL-1β gene expression in PBMCs of SS patients, real-time RT-PCR", "format": "cell-based, human", "conditions": "25 μg/mL, 48 hours", "procedure": "as §2"}, "BLyS": {"tested_on": "BLyS", "test": "BLyS gene expression in PBMCs of SS patients, real-time RT-PCR", "format": "cell-based, human", "conditions": "25 μg/mL, 48 hours", "procedure": "as §2"}, "[6]": {"conditions": "PBMCs of pSS patients, compared with hCDR1 alone (FIG. 3D)"}, "[7]": {"conditions": "TGF-β gene, PBMCs of SS patients"}, "[8]": {"conditions": "vs medium alone and control scrambled peptide (FIG. 2)"}, "[9]": {"conditions": "IDO gene, PBMCs of SS patients, 48 hours"}, "[10]": {"conditions": "FOXP3 gene, PBMCs of SS patients, 25 μg/mL, 48 hours"}},
  "note": "Entries after “also recorded” stand apart in the source; their conditions may differ.",
  "data": [
    {"molecule": "Cn1cc(C[C@@H](N)C(=O)O)c2ccccc21", "note": "[1 mT, 1-methyl-D-tryptophan, reference compound]", "values": [
      {"measurement": "IDO gene expression on addition of 1 mT to PBMC cultures with hCDR1", "setting": "IDO [1]; [6]", "result": "significant decrease"},
      {"measurement": "FOXP3 expression on addition of 1 mT to PBMC cultures with hCDR1", "setting": "FOXP3; [6]", "result": "significant down-regulation"}
    ]},
    {"molecule": "GYYWSWIRQPPGKGEEWIG [hCDR1, 19-amino-acid synthetic peptide based on CDR1 of the heavy chain of human anti-DNA mAb 16/6Id]", "values": [
      {"measurement": "binding to DNA", "setting": "DNA", "result": "does not bind"},
      {"measurement": "gene expression of pathogenic cytokines", "setting": "pathogenic cytokines [2]", "result": "No significant effects; also recorded: non-significant effects"},
      {"measurement": "safety and tolerability", "setting": "[3]", "result": "safe and well tolerated"},
      {"measurement": "gene expression of pathogenic cytokines", "setting": "pathogenic cytokines [4]", "result": "No significant effects; also recorded: non-significant effects"},
      {"measurement": "serological and clinical disease manifestations of SLE", "setting": "SLE in murine models", "result": "ameliorate serological and clinical disease manifestations"},
      {"measurement": "expression of the gene for TGF-β", "setting": "TGF-β", "result": "significantly up-regulated"},
      {"measurement": "Modulation by hCDR1", "setting": "TGF-β; [7]", "result": "Upregulation"},
      {"measurement": "Percent responders exhibiting gene expression modulation, hCDR1 compared to control peptide", "setting": "TGF-β; [7]", "result": "(72.7%)"},
      {"measurement": "Percent responders exhibiting gene expression modulation, hCDR1 compared to medium", "setting": "TGF-β; [7]", "result": "(70.5%)"},
      {"measurement": "Responders/Total, hCDR1 compared to control peptide", "setting": "TGF-β; [7]", "result": "8/11"},
      {"measurement": "Responders/Total, hCDR1 compared to medium", "setting": "TGF-β; [7]", "result": "12/17"},
      {"measurement": "gene expression of TNF-α", "setting": "TNF-α; [8]", "result": "significant reduction; also recorded: significant effects"},
      {"measurement": "Modulation by hCDR1", "setting": "TNF-α; TNF-α gene", "result": "Downregulation"},
      {"measurement": "Percent responders exhibiting gene expression modulation, hCDR1 compared to control peptide", "setting": "TNF-α; TNF-α gene", "result": "(61.5%)"},
      {"measurement": "Percent responders exhibiting gene expression modulation, hCDR1 compared to medium", "setting": "TNF-α; TNF-α gene", "result": "(78.5%)"},
      {"measurement": "Responders/Total, hCDR1 compared to control peptide", "setting": "TNF-α; TNF-α gene", "result": "8/13"},
      {"measurement": "Responders/Total, hCDR1 compared to medium", "setting": "TNF-α; TNF-α gene", "result": "11/14"},
      {"measurement": "Modulation by hCDR1", "setting": "IDO [1]; [9]", "result": "Upregulation"},
      {"measurement": "Percent responders exhibiting gene expression modulation, hCDR1 compared to control peptide", "setting": "IDO [1]; [9]", "result": "(69%)"},
      {"measurement": "Percent responders exhibiting gene expression modulation, hCDR1 compared to medium", "setting": "IDO [1]; [9]", "result": "(81%)"},
      {"measurement": "Responders/Total, hCDR1 compared to control peptide", "setting": "IDO [1]; [9]", "result": "9/13"},
      {"measurement": "Responders/Total, hCDR1 compared to medium", "setting": "IDO [1]; [9]", "result": "13/16"},
      {"measurement": "expression of the IDO gene", "setting": "IDO [1]; PBMCs of patients with pSS, 48 hours, vs medium alone or control peptide (FIG. 3A)", "result": "up-regulated significantly"},
      {"measurement": "binding to anti-DNA antibodies", "setting": "anti-DNA antibodies", "result": "does not bind"},
      {"measurement": "gene expression of MX1", "setting": "MX1; [8]", "result": "significant reduction; also recorded: significant effects"},
      {"measurement": "Modulation by hCDR1", "setting": "MX1; MX1 gene", "result": "Downregulation"},
      {"measurement": "Percent responders exhibiting gene expression modulation, hCDR1 compared to control peptide", "setting": "MX1; MX1 gene", "result": "(77%)"},
      {"measurement": "Percent responders exhibiting gene expression modulation, hCDR1 compared to medium", "setting": "MX1; MX1 gene", "result": "(77%)"},
      {"measurement": "Responders/Total, hCDR1 compared to control peptide", "setting": "MX1; MX1 gene", "result": "10/13"},
      {"measurement": "Responders/Total, hCDR1 compared to medium", "setting": "MX1; MX1 gene", "result": "10/13"},
      {"measurement": "effects on several parameters", "setting": "SLE patients", "result": "beneficial effects"},
      {"measurement": "expression of IDO", "setting": "IDO [5]", "result": "did not affect significantly"},
      {"measurement": "Modulation by hCDR1", "setting": "FOXP3; [10]", "result": "Upregulation"},
      {"measurement": "Percent responders exhibiting gene expression modulation, hCDR1 compared to control peptide", "setting": "FOXP3; [10]", "result": "(58%)"},
      {"measurement": "Percent responders exhibiting gene expression modulation, hCDR1 compared to medium", "setting": "FOXP3; [10]", "result": "(75%)"},
      {"measurement": "Responders/Total, hCDR1 compared to control peptide", "setting": "FOXP3; [10]", "result": "7/12"},
      {"measurement": "Responders/Total, hCDR1 compared to medium", "setting": "FOXP3; [10]", "result": "12/16"},
      {"measurement": "gene expression of the FOXP3 gene", "setting": "FOXP3; PBMCs of SS patients, 25 μg/mL, 48 hours, vs medium alone and control scrambled peptide (FIG. 2)", "result": "significant increase"},
      {"measurement": "gene expression of IL-1β", "setting": "IL-1β; [8]", "result": "significant reduction; also recorded: significant effects"},
      {"measurement": "Modulation by hCDR1", "setting": "IL-1β; IL-1β gene", "result": "Downregulation"},
      {"measurement": "Percent responders exhibiting gene expression modulation, hCDR1 compared to control peptide", "setting": "IL-1β; IL-1β gene", "result": "(61.5%)"},
      {"measurement": "Percent responders exhibiting gene expression modulation, hCDR1 compared to medium", "setting": "IL-1β; IL-1β gene", "result": "(86%)"},
      {"measurement": "Responders/Total, hCDR1 compared to control peptide", "setting": "IL-1β; IL-1β gene", "result": "8/13"},
      {"measurement": "Responders/Total, hCDR1 compared to medium", "setting": "IL-1β; IL-1β gene", "result": "12/14"},
      {"measurement": "gene expression of the BLyS gene", "setting": "BLyS; [8]", "result": "significant reduction"},
      {"measurement": "Modulation by hCDR1", "setting": "BLyS; BLyS gene", "result": "Downregulation"},
      {"measurement": "Percent responders exhibiting gene expression modulation, hCDR1 compared to control peptide", "setting": "BLyS; BLyS gene", "result": "(50%)"},
      {"measurement": "Percent responders exhibiting gene expression modulation, hCDR1 compared to medium", "setting": "BLyS; BLyS gene", "result": "(70.5%)"},
      {"measurement": "Responders/Total, hCDR1 compared to control peptide", "setting": "BLyS; BLyS gene", "result": "6/12"},
      {"measurement": "Responders/Total, hCDR1 compared to medium", "setting": "BLyS; BLyS gene", "result": "12/17"}
    ]},
    {"molecule": "IFN-α", "values": [
      {"measurement": "IDO gene expression on addition of recombinant cytokine to cultures of PBMCs with hCDR1", "setting": "IDO [1]", "result": "increased IDO gene expression to levels much higher"}
    ]},
    {"molecule": "IL-1β: recombinant IL-1β added to cultures of PBMCs with hCDR1", "values": [
      {"measurement": "IDO gene expression on addition of recombinant cytokine to cultures of PBMCs with hCDR1", "setting": "IDO [1]", "result": "increased IDO gene expression to levels much higher"}
    ]},
    {"molecule": "SKGIPQYGGWPWEGWRYEI [control scrambled peptide, Control peptide, reference compound]", "values": [
      {"measurement": "expression of the gene for TGF-β", "setting": "TGF-β", "result": "not"}
    ]}
  ]
}
